Patent publication US12150938B2, “Biomarker of polycystic kidney disease and uses thereof” (Genzyme Corporation, priority 2015, dated 2024)

Assays:
jck mice = test: Treatment of jck mice (PKD model): kidney volume / cyst volume; format: in vivo, mouse
Description: C57BL/6J jck/+ mice were maintained for mating. Cystic jck/jck mice were genotyped as previously described (Smith et al., J. Am. Soc. Nephrol. 17:2821-2831, 2006). […] conditional knockout mice were generated as described previously (Natoli et al., Nature Med. 16:788-792, 2010). The […] gene was deleted by inducing the Cre recombinase activity with tamoxifen delivered in sunflower oil (Sigma-Aldrich, St. Louis, MO), on postnatal day 1 with 100 mg/kg.
A jck mouse model of PKD (Smith et al., J. Am. Soc. Nephrol. 17:2821-2831, 2006) was used to assess the expression of AMBP. Jck mice are characterized by development of moderately progressive renal cystic disease. Kidneys from the jck mouse model are enlarged by day 26 after birth and have multiple cysts. […] Renal function in jck mice, as measured by serum creatinine and blood urea nitrogen, progressively elevates over time. […] Cysts originating from the proximal tubules are not detected in jck mice (Smith et al., J. Am. Soc. Nephrol. 17:2821-2831, 2006).
Roscovitine was administered ad libitum to jck mice from 26 to 64 days of age by mixing in powdered 5053 diet at 0.2%. […] Urine was collected for 24 hours consecutively (at day 26, 33, 41, 48, and 64 after birth) over a 5-week period from animals with a range of disease severity measured by kidney to body weight ratio (K/BW) and cystic percentage (C %). […]

AMBP protein = test: Immunoblot of AMBP protein levels in urine and kidney samples of treated jck mice; format: in vivo, mouse
Description: Kidney samples were homogenized in RIPA buffer (Boston BioProducts) including 1 mM DTT, 5 mM EDTA, 2 mM NaF, 1 mM Na3VO4 (all supplied by Sigma-Aldrich), Pefabloc SC and Complete Proteinase Inhibitor Cocktail (both from Roche Applied Science). Protein concentrations were determined by BCA protein assay (Pierce). Urine samples were briefly centrifuged at 3000 RPM for 10 minutes at 4° C. (Beckman Coulter Allegra 6A) to remove cellular debris. An equal volume of urine was diluted in 5× Laemmli Buffer (15% SDS, 0.575 M sucrose, 0.325 M Tris, pH 6.8, 5% beta-mercaptoethanol and 0.002% bromophenol blue). Equal amounts of protein and urine were loaded onto 4-14% NuPage Bis-Tris gels following the manufacturer's protocols (Invitrogen). Membranes were blocked with 5% nonfat milk in Tris-buffered saline (TBS) including 0.1% Tween-20 and incubated with primary antibodies overnight at 4° C. Primary antibodies were detected with horseradish peroxidase-labeled secondary antibodies (Promega). Immunoreactive proteins were detected by enhanced chemiluminescence (GE Healthcare). Primary antibodies to the following proteins were used: α-1-microglobulin and β-actin (Abcam), and GAPDH (US Biological).
Roscovitine was administered ad libitum to jck mice from 26 to 64 days of age by mixing in powdered 5053 diet at 0.2%. The GCSi (Genz-123346) was administered ad libitum to jck mice from day 26 to day 64 after birth by mixing in powdered 5053 diet at 0.225% (Natoli et al., Nature Med. 16:788-792, 2010). Chronic and pulse treatment with S-CR8 was performed by daily intraperitoneal injection with 24 mg/kg starting from day 26 after birth. Urine was collected for 24 hours consecutively (at day 26, 33, 41, 48, and 64 after birth) over a 5-week period from animals with a range of disease severity measured by kidney to body weight ratio (K/BW) and cystic percentage (C %).
A second set of experiments was performed in jck mice to determine a second CDK inhibitor, S-CR8, would decrease both AMBP levels and kidney volume. In these experiments, the jck animals were administered one of the following treatment schedules starting at day 26 after birth: (A) daily intraperitoneal injection with 24 mg/kg S-CR8 for five weeks; (B) daily intraperitoneal injection with 24 mg/kg S-CR8 for three weeks, and two weeks with no treatment; and (D) daily intraperitoneal injection with 24 mg/kg S-CR8 for one week and four weeks with no treatment (FIG. 18). As a control, jck animals were administered a vehicle between day 26 to day 64 after birth.

[1] = oral 0.2% in feed day 26 to day 64 after birth, day 64, vs vehicle (FIG. 17)
[2] = 0.225% in diet day 26 to day 64 after birth, day 64, vs vehicle (FIG. 22)

CC[C@@H](CO)Nc1nc(NCc2ccc(-c3ccccn3)cc2)c2ncn(C(C)C)c2n1 [S-CR8]
cyst volume (cystic volume as percentage of body weight, FIG. 19) (jck mice; daily intraperitoneal 24 mg/kg from day 26, all tested schedules (A 5 weeks, B 3 weeks, D 1 week), vs vehicle): decrease | urine AMBP protein levels (AMBP protein; daily intraperitoneal 24 mg/kg from day 26, all tested schedules (A, B, D), urine at day 64, vs vehicle (FIGS. 20 and 21)): decrease

CC[C@H](CO)Nc1nc(NCc2ccccc2)c2ncn(C(C)C)c2n1 [roscovitine]
kidney volume (kidney to body weight, FIG. 16) (jck mice; oral 0.2% in feed day 26 to day 64 after birth, measured at day 64, vs vehicle): decrease | AMBP protein levels in kidney samples (AMBP protein; [1]): decrease | AMBP protein levels in urine (AMBP protein; [1]): decrease

CCCCCCCCC(=O)N[C@H](CN1CCCC1)[C@H](O)c1ccc2c(c1)OCCO2 [Genz-123346]
AMBP levels in kidney tissue samples (AMBP protein; [2]): decrease | AMBP levels in urine samples (AMBP protein; [2]): decrease
